# Values quoted from earlier work in US12133911B2, “Formulations to achieve rapid dissolution of drug from spray-dried dispersions in capsules” (Capsugel Belgium NV, priority 2015, dated 2024).
# Settings: molality (moles of solute per unit mass) of a saturated solution in water
row,Compound,Water Solub. [mol/kg]
1,"[Cl-].[K+] [KCl, potassium chloride]",9.40
2,O=C(CO)[C@@H](O)[C@H](O)[C@H](O)CO [fructose],3.89

# Continued, values first:
row,Water Solub. [mol/kg],Compound
1,4.11,OC[C@@H](O)[C@H](O)[C@@H](O)CO [xylitol]
2,0.99,OC[C@@H](O)[C@@H](O)[C@H](O)[C@H](O)CO [mannitol]
3,4.56,OC[C@@H](O)[C@@H](O)[C@H](O)[C@@H](O)CO [sorbitol]
